Test results as given in patent US20240327364A1, “THERAPEUTIC TARGETING OF GPR68 TO INDUCE FERROPTOSIS” (University Of Maryland, Baltimore, priority 2023, published 2024).
Where two headings read alike, the source gives them in different places.

Legend:
[1] = tested on: HeLa; assay: Cell Titer-Glo viability, Cervical cancer; assay type: cell-based
Description: (§1) OGM2 kills wide variety of cancer cell types. Cell sensitivity can be classified in to Very Sensitive (LC50<2 μM), Sensitive (LC50=2 to 10 μM), Mildly Sensitive (LC50>10 μM), and Refractory (no killing at 10 μM). The listed established cell were incubated with OGM2 at 2 μM or 10 μM for 72 hours under standard cell culture conditions, and relative cell number was assessed using Cell Titer-Glo Luminescent Cell Viability Assay (Promega™) following the manufacturer's instructions. Luminescence was determined using a Cytation 5 reader and Gen5 software package (BioTek™).
(§2) Cancer cells, which are very sensitive to killing by OGM2 (LCs <2 μM), with reported mRNA expression of GPR68 and the related proton sensing receptor GPR4. LC50's (concentrations causing 50% lethality) were determined using CellTiter-Glo (Promega™, G7570). Cells were plated in 12-well plates (CELLTREAT Scientific Products, 229112) in 1 ml of DMEM with high glucose, GlutaMAX, HEPES, or RPMI 1640 with Penicillin-Streptomycin (ThermoFisher™, 10564029, 11875119 and 15140122) and 10% FBS. Cells were incubated overnight at 37° C. in 5% CO2. Then 1 mL of fresh media was added with DMSO, OGM, or positive control (Erastin; APExBIO Technology, LLC, B1524) and cells incubated for 3 days. On the third day, all media was removed, cells were rinsed with 1×PBS, PBS was removed, and 200 μL of 1× Passive Lysis Buffer (Promega™, E1941) was added to each well. […]. Subsequently, 20 μL of lysate was added to 100 μL CellTiter-Glo™ reagent on a LUMITRAC 200 plate (Greiner™ bio-one, 82050-726). Plates were briefly spun down and read on a GloMax-Multi Detection System (Promega™).
(§3) The cells listed in the tables above were incubated with OGM2 at 2 μM or 10 μM for 72 hours under standard cell culture conditions, and relative cell number was assessed using Cell Titer-Glo Luminescent Cell Viability Assay (Promega™) following the manufacturer's instructions. Luminescence was determined using a Cytation 5 reader and Gen5 software package (BioTek™). RNA expression of GPR68 and GPR4 in the corresponding cancer cell lines are listed, according to the publicly available The Human Protein Atlas version 22.0 and Ensembl version 103.38 (see proteinatlas.org). The consensus normalized expression value (“nTPM”=normalize transcript per million) was calculated as the maximum nTPM value for each gene in the two data sources.

[2] = tested on: NCI-H82; assay: Cell Titer-Glo viability, Lung cancer, small cell; assay type: cell-based
Description: as §1, §2, §3

[3] = tested on: ALI induced by HTV, LPS and both; assay: HTV mechanical ventilation / LPS acute lung injury; assay type: in vivo, C57Bl mice
From the text: FIG. 38A through FIG. 38D: High-tidal volume (HTV) mechanical ventilation causes ALI and exacerbates ALI caused by LPS (“two-hit”) in C57Bl mice, and OGM2 attenuates these effects. […] Lungs from mice treated with OGM2 are marked with “+”. […] Here, OGM and OGM8345=OGM2.

[4] = tested on: zebrafish embryo; assay: Zebrafish embryo phenotype; assay type: in vivo; details: 10 uM
Description: A chemical screen for small molecules that perturb embryonic development (dorsoventral axis) in zebrafish was performed as previously described (see Chen et al., 2009; Hao et al., 2013; Williams et al., 2015; Yu et al., 2008)). Briefly, pairs of WT zebrafish were mated, and fertilized eggs were arrayed in 96-well microtiter plates (5 embryos/well) containing […] E3 water. At 4 hours post fertilization (pf), a small molecule library from Vanderbilt High Throughput Screening Facility was added to each well to a final concentration of 10 μM. Embryos were incubated at 28.5 C until 24 and 48 hours pf, when they were examined for gross morphologic changes indicative of reproducible embryonic defects (dorsalization of the embryonic axis). A total of 30,000 compounds were screened. To discover novel small molecule modulators of embryonic development an unbiased screen of ˜30,000 small molecules was conducted, in which the compounds were assayed for their ability to induce phenotypic changes in the morphology of zebrafish. Further information on these assays can be found in Hao et al., 2013 and Williams et al., 2015. […] This compound was identified based on the phenotype of aberrant pigmentation. Compare FIG. 2B and FIG. 2C, which show a dorsal view of a representative DMSO vehicle control-treated zebrafish embryo at 48 hours pf and a dorsal view of a representative OGM1 (10 uM)-treated zebrafish embryo at 48 hours pf. […] Since GPCRs represent >30% of targets for FDA-approved small molecules and are known to modulate cell migration, activity against 158 GPCRs was assessed based on their chemical structures. GPCRs (158) were tested for agonist and antagonist activity at 10 μM. […] Chemical segregation analysis of zebrafish phenotype was conducted to further identify the inhibitory activity responsible for the zebrafish phenotype. […] The identities of the R groups in Formula A are shown below in Table 5.

[5] = molecular target: T1, GSK3B (Homo sapiens, UniProt P49841); assay: KinomeScan; assay type: binding; details: read-out: % Control
T1 construct: purchased DiscoveRx (Fremont, CA)

[6] = molecular target: T2, MUSK (Homo sapiens, UniProt O15146); assay: KinomeScan; assay type: binding; details: read-out: % Control
T2 construct: purchased DiscoveRx

[7] = molecular target: T3, PIM3 (Homo sapiens, UniProt Q86V86); assay: KinomeScan; assay type: binding; details: read-out: % Control
T3 construct: purchased DiscoveRx (Fremont, CA)

[8] = molecular target: T4, RSK3(Kin.Dom.1-N-terminal) (Homo sapiens, UniProt Q15349); assay: KinomeScan; assay type: binding; details: read-out: % Control
T4 construct: RSK3(Kin.Dom.1-N-terminal); purchased DiscoveRx (Fremont, CA)

[9] = molecular target: T5, RSK4(Kin Dom.1-N-terminal) (Homo sapiens, UniProt Q9UK32); assay: KinomeScan; assay type: binding; details: read-out: % Control
T5 construct: RSK4(Kin Dom.1-N-terminal); purchased DiscoveRx (Fremont, CA)

[10] = molecular target: T6, WEE2 (Homo sapiens, UniProt P0C1S8); assay: KinomeScan; assay type: binding; details: read-out: % Control
T6 construct: purchased DiscoveRx

[11] = molecular target: T7, GAL2 (Homo sapiens, UniProt O43603); assay: GPCR Profiler; assay type: cell-based
T7 construct: host or cells: Chem-1 cells expressing Gα15
T7 sequence (O43603 whole entry): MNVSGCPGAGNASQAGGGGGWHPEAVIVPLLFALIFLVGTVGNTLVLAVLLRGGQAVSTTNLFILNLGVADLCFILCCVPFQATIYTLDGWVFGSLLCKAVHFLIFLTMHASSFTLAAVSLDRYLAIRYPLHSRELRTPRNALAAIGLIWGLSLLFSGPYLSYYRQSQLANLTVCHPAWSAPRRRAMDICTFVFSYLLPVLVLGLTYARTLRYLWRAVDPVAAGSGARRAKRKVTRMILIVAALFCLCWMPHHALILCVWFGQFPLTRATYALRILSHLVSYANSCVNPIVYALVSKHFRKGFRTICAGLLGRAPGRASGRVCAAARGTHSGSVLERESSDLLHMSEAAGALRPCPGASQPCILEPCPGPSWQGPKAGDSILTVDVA

T6 sequence (P0C1S8 whole entry): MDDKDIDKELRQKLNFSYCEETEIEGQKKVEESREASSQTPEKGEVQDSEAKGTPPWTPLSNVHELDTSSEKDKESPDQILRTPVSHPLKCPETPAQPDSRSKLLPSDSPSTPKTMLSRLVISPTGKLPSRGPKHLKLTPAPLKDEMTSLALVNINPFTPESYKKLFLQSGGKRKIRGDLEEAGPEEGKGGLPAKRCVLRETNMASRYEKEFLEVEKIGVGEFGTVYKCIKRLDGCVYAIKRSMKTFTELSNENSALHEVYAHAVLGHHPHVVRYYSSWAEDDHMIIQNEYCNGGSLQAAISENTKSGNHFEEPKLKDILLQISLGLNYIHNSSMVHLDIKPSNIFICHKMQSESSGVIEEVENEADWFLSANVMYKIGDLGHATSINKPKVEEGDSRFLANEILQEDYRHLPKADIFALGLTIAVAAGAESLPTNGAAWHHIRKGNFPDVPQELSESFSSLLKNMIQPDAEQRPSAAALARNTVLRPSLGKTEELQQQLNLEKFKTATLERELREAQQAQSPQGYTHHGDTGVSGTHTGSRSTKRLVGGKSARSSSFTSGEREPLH
T1 sequence (P49841 whole entry): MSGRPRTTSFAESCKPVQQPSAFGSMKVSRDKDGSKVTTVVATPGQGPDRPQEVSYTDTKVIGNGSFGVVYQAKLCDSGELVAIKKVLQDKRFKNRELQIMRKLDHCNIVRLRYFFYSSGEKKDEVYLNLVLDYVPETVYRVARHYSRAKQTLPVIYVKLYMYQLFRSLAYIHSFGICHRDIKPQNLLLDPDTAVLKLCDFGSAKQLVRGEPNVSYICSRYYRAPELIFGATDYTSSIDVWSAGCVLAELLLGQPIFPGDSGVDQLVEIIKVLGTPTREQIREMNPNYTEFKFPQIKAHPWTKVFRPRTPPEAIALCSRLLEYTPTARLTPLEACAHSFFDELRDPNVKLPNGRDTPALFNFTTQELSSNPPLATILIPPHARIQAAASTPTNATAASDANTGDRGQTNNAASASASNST
T4 sequence (Q15349 59-318 limits assumed): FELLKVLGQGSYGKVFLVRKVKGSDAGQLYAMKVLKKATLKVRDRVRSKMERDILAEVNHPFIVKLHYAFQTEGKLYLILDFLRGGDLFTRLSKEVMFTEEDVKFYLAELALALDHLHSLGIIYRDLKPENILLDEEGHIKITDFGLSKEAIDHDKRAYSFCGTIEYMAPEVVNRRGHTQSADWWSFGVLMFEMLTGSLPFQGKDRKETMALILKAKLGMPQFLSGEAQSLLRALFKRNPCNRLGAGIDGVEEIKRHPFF
T2 sequence (O15146 24-869): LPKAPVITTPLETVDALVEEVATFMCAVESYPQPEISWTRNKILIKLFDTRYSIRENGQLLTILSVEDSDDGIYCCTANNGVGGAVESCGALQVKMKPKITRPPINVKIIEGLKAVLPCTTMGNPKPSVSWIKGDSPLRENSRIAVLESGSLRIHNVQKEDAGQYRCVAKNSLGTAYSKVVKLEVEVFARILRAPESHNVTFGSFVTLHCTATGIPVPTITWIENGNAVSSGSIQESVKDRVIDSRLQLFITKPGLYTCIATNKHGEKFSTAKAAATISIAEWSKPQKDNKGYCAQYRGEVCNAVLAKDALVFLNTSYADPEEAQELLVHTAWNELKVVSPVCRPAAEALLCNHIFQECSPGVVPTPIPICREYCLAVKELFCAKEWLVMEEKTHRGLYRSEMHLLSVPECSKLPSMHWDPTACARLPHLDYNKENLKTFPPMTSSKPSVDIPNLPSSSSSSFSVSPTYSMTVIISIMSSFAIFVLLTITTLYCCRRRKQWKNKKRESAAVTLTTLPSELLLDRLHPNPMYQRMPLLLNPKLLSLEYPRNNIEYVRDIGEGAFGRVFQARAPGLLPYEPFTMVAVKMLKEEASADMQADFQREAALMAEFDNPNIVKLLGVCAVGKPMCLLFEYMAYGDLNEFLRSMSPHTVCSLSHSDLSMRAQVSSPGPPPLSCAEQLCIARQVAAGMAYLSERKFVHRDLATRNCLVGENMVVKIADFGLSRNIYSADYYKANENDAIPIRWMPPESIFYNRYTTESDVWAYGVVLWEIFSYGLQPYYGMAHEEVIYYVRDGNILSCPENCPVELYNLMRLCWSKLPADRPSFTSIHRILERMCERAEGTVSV
T5 sequence (Q9UK32 73-330 limits assumed): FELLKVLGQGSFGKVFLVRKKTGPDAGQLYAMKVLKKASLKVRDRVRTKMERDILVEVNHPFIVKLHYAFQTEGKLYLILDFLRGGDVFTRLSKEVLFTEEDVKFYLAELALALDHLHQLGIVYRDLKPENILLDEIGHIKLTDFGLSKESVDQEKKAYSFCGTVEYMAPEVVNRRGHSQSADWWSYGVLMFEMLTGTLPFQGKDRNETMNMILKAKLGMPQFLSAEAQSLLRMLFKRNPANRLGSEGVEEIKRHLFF

## CCc1ccc2c(c1)C1(NN=C(c3ccccc3)S1)C(=O)N2 (centres unmarked) [OGM2]
[1]
  Class: Mildly
[1]; 72 hours
  % Survival 2 μM OGM: 91.5%
  % Survival 10 μM OGM: 68.0%
[1]; Homo sapiens, HeLa, 72 hours, read-out: LC50 (the source's name)
  CC50: > 10 µM
[1]; Table 13
  Class: Low
[2]
  Class: Mildly
[2]; 72 hours
  % Survival 2 μM OGM: 102.6%
  % Survival 10 μM OGM: 59.9%
[2]; Homo sapiens, NCI-H82, 72 hours, read-out: LC50 (the source's name)
  CC50: > 10 µM
[2]; Table 13
  Class: Low
[3]; OGM2 40 mg/kg ip 15 minutes before HTV
  lung vascular leak (Evans blue): significantly attenuated lung vascular leak
[3]; mouse, in vivo
  BAL cell count: significantly attenuated the rise
  BAL protein concentration: significantly attenuated the rise
  inflammatory cytokine mRNA expression: blunted the rise

## CCc1ccc2c(c1)C1(NN=C(c3cccc4ccccc34)S1)C(=O)N2 (centres unmarked) [OGM1, 5-ethyl-5′-naphthalen-1-ylspiro[1H-indole-3,2′-3H-1,3,4-thiadiazole]-2-one]
[4]
  phenotypes induced: reproducibly induced ventral curvature, wavy notochord, shortened body axis, craniofacial defects, and loss of retinal iridophores
[5]
  remaining binding at 10 µM: 83%
[6]
  remaining binding at 10 µM: 90%
[7]
  remaining binding at 10 µM: 73%
[8]
  remaining binding at 10 µM: 100%
[9]
  remaining binding at 10 µM: 100%
[10]
  remaining binding at 10 µM: 100%
[11]; 10 uM
  Antagonism: 1
[11]; 12.5 uM
  Agonism: 0.4
